Reference: the supplement of paper PMC10307832

Legend:
Experiment in all cases: relative viability (nuclei count vs DMSO), 5 days (fraction); higher = more cells survive
OSI-027 + Dasatinib = compound: COc1cccc2cc(-c3nc([C@H]4CC[C@H](C(=O)O)CC4)n4ncnc(N)c34)[nH]c12 [OSI-027] + Cc1nc(Nc2ncc(C(=O)Nc3c(C)cccc3Cl)s2)cc(N2CCN(CCO)CC2)n1 [Dasatinib] (partner 0.075 µM)
Procedure, shortened: (§1)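 Lung cancer cell lines were pin-tool dosed in 1536-well plates on the day after seeding, with either a lone drug or a fixed anchor-drug dose plus five library-drug doses (not always all listed) in √10 steps. Nuclei were counted on 4× images after 5 days. Relative viability is the ratio of treated-well to vehicle-well nuclei counts, with each value a median of duplicate plates.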

Alpelisib + Palbociclib = compound: Cc1nc(NC(=O)N2CCC[C@H]2C(N)=O)sc1-c1ccnc(C(C)(C)C(F)(F)F)c1 [Alpelisib] + CC(=O)c1c(C)c2cnc(Nc3ccc(N4CCNCC4)cn3)nc2n(C2CCCC2)c1=O [Palbociclib] (partner 0.5 µM)
Procedure, shortened: as §1

Alpelisib + Phenformin = compound: Cc1nc(NC(=O)N2CCC[C@H]2C(N)=O)sc1-c1ccnc(C(C)(C)C(F)(F)F)c1 [Alpelisib] + N=C(N)NC(=N)NCCc1ccccc1 [Phenformin] (partner 250 µM)
Procedure, shortened: as §1

OSI-027 + Navitoclax = compound: COc1cccc2cc(-c3nc([C@H]4CC[C@H](C(=O)O)CC4)n4ncnc(N)c34)[nH]c12 [OSI-027] + CC1(C)CCC(c2ccc(Cl)cc2)=C(CN2CCN(c3ccc(C(=O)NS(=O)(=O)c4ccc(N[C@H](CCN5CCOCC5)CSc5ccccc5)c(S(=O)(=O)C(F)(F)F)c4)cc3)CC2)C1 [Navitoclax] (partner 0.5 µM)
Procedure, shortened: as §1

| Cell Line | relative viability (OSI-027 + Dasatinib; first compound 0.01 µM) | relative viability (OSI-027 + Dasatinib; first compound 0.03162 µM) | relative viability (OSI-027 + Dasatinib; first compound 0.1 µM) | relative viability (OSI-027 + Dasatinib; first compound 0.3162 µM) | relative viability (OSI-027 + Dasatinib; first compound 1 µM) | relative viability (Alpelisib + Palbociclib; first compound 0.04 µM) | relative viability (Alpelisib + Palbociclib; first compound 0.1265 µM) | relative viability (Alpelisib + Palbociclib; first compound 0.4 µM) | relative viability (Alpelisib + Palbociclib; first compound 1.265 µM) | relative viability (Alpelisib + Palbociclib; first compound 4 µM) | relative viability (Alpelisib + Phenformin; first compound 0.04 µM) | relative viability (Alpelisib + Phenformin; first compound 0.1265 µM) | relative viability (Alpelisib + Phenformin; first compound 0.4 µM) | relative viability (Alpelisib + Phenformin; first compound 1.265 µM) | relative viability (Alpelisib + Phenformin; first compound 4 µM) | relative viability (OSI-027 + Navitoclax; first compound 0.01 µM) | relative viability (OSI-027 + Navitoclax; first compound 0.03162 µM) | relative viability (OSI-027 + Navitoclax; first compound 0.1 µM) | relative viability (OSI-027 + Navitoclax; first compound 0.3162 µM) | relative viability (OSI-027 + Navitoclax; first compound 1 µM) |
| --- | --- | --- | --- | --- | --- | --- | --- | --- | --- | --- | --- | --- | --- | --- | --- | --- | --- | --- | --- | --- |
| HCC-78 | 0.329 | 0.356 | 0.3 | 0.266 | 0.325 | 0.521 | 0.545 | 0.479 | 0.459 | 0.43 | 0.708 | 0.54 | 0.708 | 0.471 | 0.428 | 0.868 | 0.766 | 0.371 | 0.454 | 0.278 |
| HCC-366 | 0.679 | 0.708 | 0.61 | 0.477 | 0.395 | 0.421 | 0.356 | 0.36 | 0.247 | 0.162 | 0.639 | 0.608 | 0.636 | 0.428 | 0.139 | 1.05 | 1.14 | 1.06 | 1.05 | 0.287 |
| HCC-827 | 0.298 | 0.295 | 0.326 | 0.226 | 0.222 | 0.509 | 0.489 | 0.485 | 0.41 | 0.386 | 0.424 | 0.419 | 0.338 | 0.371 | 0.303 | 1.07 | 1.06 | 0.995 | 0.996 | 0.651 |
| HOP-62 | 0.6 | 0.675 | 0.591 | 0.556 | 0.301 | 0.43 | 0.425 | 0.508 | 0.309 | 0.417 | 0.642 | 0.611 | 0.761 | 0.561 | 0.633 | 1.11 | 1.09 | 1.02 | 1.13 | 0.646 |
| IA-LM |  |  |  |  |  |  |  |  |  |  |  |  |  |  |  | 0.873 | 0.572 | 0.481 | 0.182 | 0.0688 |
| LC-2-ad | 0.585 | 0.537 | 0.494 | 0.455 | 0.333 | 0.547 | 0.47 | 0.467 | 0.404 | 0.409 | 0.603 | 0.549 | 0.586 | 0.338 | 0.427 | 0.458 | 0.4 | 0.372 | 0.243 | 0.122 |
| LCLC-97TM1 | 0.91 | 0.907 | 0.849 | 0.746 | 0.573 | 0.206 | 0.177 | 0.183 | 0.119 | 0.0948 | 0.493 | 0.439 | 0.385 | 0.248 | 0.19 | 0.36 | 0.331 | 0.381 | 0.214 | 0.159 |
| LCLC-103H | 0.48 | 0.497 | 0.434 | 0.439 | 0.27 | 0.451 | 0.489 | 0.457 | 0.427 | 0.37 | 0.344 | 0.347 | 0.311 | 0.245 | 0.272 |  |  |  |  |  |
| LK-2 | 0.343 | 0.266 | 0.24 | 0.203 | 0.225 | 0.653 | 0.645 | 0.499 | 0.322 | 0.314 | 0.4 | 0.233 | 0.213 | 0.226 | 0.161 | 0.774 | 0.781 | 0.69 | 0.372 | 0.238 |
| LOU-NH91 | 0.533 | 0.542 | 0.471 | 0.407 | 0.392 | 0.586 | 0.511 | 0.547 | 0.511 | 0.496 | 0.668 | 0.58 | 0.648 | 0.525 | 0.472 | 0.758 | 0.712 | 0.69 | 0.653 | 0.513 |
| NCI-H358 | 0.154 | 0.183 | 0.158 | 0.127 | 0.132 | 0.118 | 0.104 | 0.139 | 0.103 | 0.103 | 0.309 | 0.321 | 0.338 | 0.242 | 0.16 |  |  |  |  |  |
| NCI-H522 | 0.963 | 0.944 | 0.723 | 0.629 | 0.736 | 0.993 | 0.752 | 0.87 | 0.944 | 0.657 | 0.573 | 0.601 | 0.782 | 0.5 | 0.582 |  |  |  |  |  |
| NCI-H596 | 0.588 | 0.55 | 0.606 | 0.562 | 0.564 |  |  |  |  |  | 0.669 | 0.709 | 0.695 | 0.421 | 0.329 | 0.888 | 0.941 | 0.933 | 0.85 | 0.459 |
| NCI-H650 | 0.405 | 0.464 | 0.336 | 0.347 | 0.311 | 0.315 | 0.345 | 0.316 | 0.263 | 0.265 | 0.469 | 0.429 | 0.534 | 0.349 | 0.369 |  |  |  |  |  |
| NCI-H661 | 0.664 | 0.989 | 0.708 | 0.602 | 0.383 | 0.365 | 0.367 | 0.411 | 0.412 | 0.359 | 0.285 | 0.281 | 0.253 | 0.245 | 0.262 |  |  |  |  |  |
| NCI-H1299 |  |  |  |  |  |  |  |  |  |  |  |  |  |  |  | 1.07 | 1.05 | 1.08 | 1.1 | 1 |
| NCI-H1563 | 0.444 | 0.467 | 0.447 | 0.457 | 0.454 |  |  |  |  |  | 0.637 | 0.698 | 0.64 | 0.604 | 0.589 |  |  |  |  |  |
| NCI-H1623 | 0.52 | 0.607 | 0.455 | 0.365 | 0.275 |  |  |  |  |  | 0.548 | 0.545 | 0.516 | 0.532 | 0.426 |  |  |  |  |  |
| NCI-H1648 |  |  |  |  |  | 0.259 | 0.304 | 0.241 | 0.234 | 0.237 |  |  |  |  |  |  |  |  |  |  |
| NCI-H1703 |  |  |  |  |  |  |  |  |  |  |  |  |  |  |  | 0.864 | 1.11 | 0.991 | 0.625 | 0.512 |
| NCI-H2342 | 0.316 | 0.278 | 0.314 | 0.296 | 0.316 | 0.57 | 0.509 | 0.518 | 0.467 | 0.414 | 0.606 | 0.587 | 0.559 | 0.519 | 0.439 |  |  |  |  |  |
| SW 900 |  | 0.6 | 0.641 | 0.487 | 0.288 | 0.536 |  | 0.706 | 0.483 | 0.49 | 0.561 | 0.525 | 0.449 | 0.474 | 0.347 |  |  |  |  |  |
